One may read the zone of inhibition as the extent of the growth-free halo in a diffusion test.

Results on nine compounds are retold here after PMC7002245 (European journal of medicinal chemistry, 2019).

Like-named read-outs stand apart in the source and are kept apart here.

Series [1] concerns E. coli PQ37. Kind of series: microbe, parasite or virus in culture. The format is cell-based. Particulars: Escherichia coli.
Series [2] has as its system coxsackievirus B3 97927 I1207K I1092. The format is cell-based.
For series [3], the system named is rhinovirus B5. The series is classed as cell-based. As to conditions: HeLa cells, CPE inhibition, 72 h post infection; n/a = not active (max 100 μM).
The test system of series [4] is rhinovirus B14. The series is classed as cell-based. Particulars: HeLa cells, CPE inhibition, 72 h post infection; n/a = not active (max 100 μM).
The subject of series [5] is CYP3A4. Particulars: human, hepatocytes.
The test system of series [6] is coxsackievirus B3 Nancy. The format is cell-based. Particulars: HeLa cells, CPE inhibition, 48 h post infection; n/a = not active (max 100 μM).
Series [7] can be described thus: Pharmacokinetic study in mice after intragastric administration. The series is classed as in vivo.

As for `CN(C)C(=O)c1cc(CCCOc2ccc(-c3noc(C(F)(F)F)n3)cc2C(F)(F)F)on1` [10k, 3-(3-Trifluoromethyl-4-(3-(3-N,N-dimethylcarbamoyl-isoxazol-5-yl)propoxy)phenyl)-5-trifluoromethyl-1,2,4-oxadiazole], the zone of inhibition at 10000 µg/mL in series [1] is 0 mm.

For `CNC(=O)c1cc(CCCOc2c(C)cc(-c3noc(C(F)(F)F)n3)cc2C)on1` [10b, 3-(3,5-Dimethyl-4-(3-(3-methylcarbamoyl-isoxazol-5-yl)propoxy)phenyl)-5-trifluoromethyl-1,2,4-oxadiazole], the zone of inhibition at 10000 µg/mL in series [1] was found to be 0 mm.

Turning to `CNC(=O)c1cc(CCCOc2ccc(-c3noc(C(F)(F)F)n3)cc2C(F)(F)F)on1` [10m, 3-(3-Trifluoromethyl-4-(3-(3-methylcarbamoyl-isoxazol-5-yl)propoxy)phenyl)-5-trifluoromethyl-1,2,4-oxadiazole], in series [2], the “IC50 towards coxsackievirus B3 97927 I1207K I1092” value is listed as “no activity”. In series [3], the “IC50 towards rhinovirus B5” value is recorded as “did not totally inhibit”. Besides, the “IC50 towards rhinovirus B14” value in series [4] is listed as “did not totally inhibit”.

As to `Cc1cc(CCCOc2c(C)cc(-c3noc(C(F)(F)F)n3)cc2C)on1` [P, pleconaril, reference compound], the “induction of CYP3A4, % of control” value is given as 13% in series [5] (1 μM) and 30% in series [5] (10 μM).

`CCOC(=O)c1cc(CCCOc2ccc(-c3noc(C(F)(F)F)n3)cc2)on1` [6c, 3-(4-(3-(3-Carbethoxy-isoxazol-5-yl)propoxy)phenyl)-5-trifluoromethyl-1,2,4-oxadiazole]: in series [2], the “IC50 towards coxsackievirus B3 97927 I1207K I1092” value is “inactive”. Moreover, the “IC50 towards rhinovirus B5” value in series [3] is “inactive”. Besides, in series [6], the “IC50 towards coxsackievirus B3 Nancy” value was “inactive”.

As to `Cc1cc(-c2noc(C(F)(F)F)n2)ccc1OCCCc1cc(C(=O)N(C)C)no1` [10g, 3-(3-Methyl-4-(3-(3-N,N-dimethylcarbamoyl-isoxazol-5-yl)propoxy)phenyl)-5-trifluoromethyl-1,2,4-oxadiazole], the “induction of CYP3A4 (fold)” value was found to be 1.2 x in series [5] (1 μM) and 1.4 x in series [5] (10 μM). For the same compound, the figures for the “induction of CYP3A4, % of control” value in series [5] (1 μM) and in series [5] (10 μM) were 3% and 7%, respectively. The zone of inhibition at 10000 µg/mL in series [1] turned out to be 0 mm. In addition, in series [7] (100 mg/kg intragastric), the bioavailability result was “very high bioavailability”. This compound also returned a CL in series [7] (100 mg/kg single dose intragastric, CL = dose/AUC0-∞) of 0.66 h⁻¹.

As to `COC(=O)c1cc(CCCOc2c(C)cc(-c3noc(C(F)(F)F)n3)cc2C)on1` [6a, 3-(3,5-Dimethyl-4-(3-(3-carbmethoxy-isoxazol-5-yl)propoxy)phenyl)-5-trifluoromethyl-1,2,4-oxadiazole], the “IC50 towards rhinovirus B5” value in series [3] is listed as “no activity”.

Regarding `Cc1cc(-c2noc(C(F)(F)F)n2)cc(C)c1OCCCc1cc(C(=O)N(C)C)no1` [10e, 3-(3,5-Dimethyl-4-(3-(3-N,N-dimethylcarbamoyl-isoxazol-5-yl)propoxy)phenyl)-5-trifluoromethyl-1,2,4-oxadiazole], the zone of inhibition at 10000 µg/mL in series [1] is 0 mm.

`CN(C)C(=O)c1cc(CCCOc2ccc(-c3noc(C(F)(F)F)n3)cc2[N+](=O)[O-])on1` [10i, 3-(3-Nitro-4-(3-(3-N,N-dimethylcarbamoyl-isoxazol-5-yl)propoxy)phenyl)-5-trifluoromethyl-1,2,4-oxadiazole]: the zone of inhibition at 10000 µg/mL in series [1] worked out at 0 mm.
